Source: PMC11581978, “Paenilamicins are context-specific translocation inhibitors of protein synthesis” (Nature Chemical Biology, 2024)
“Also recorded” adds a separate entry of the source.

Key:
fungi = conditions: cited from earlier work
Source text: In the A-site, PamB2 contacts not only with 16S rRNA nucleotides in h44, but also A1913 from H69 of the 23S rRNA, and, in contrast to the P-site, the compound makes extensive interactions with the A-site tRNA, albeit less with the mRNA codon (Fig. 2c–f). Interactions of PamB2 with the A-site tRNA revolve around nucleotides ct^6A37 and A38, which are located in the anticodon-stem loop, directly adjacent to the anticodon (34CAU36) (Fig. 2e,f). Specifically, three direct hydrogen bonds are possible with A38 (Fig. 2e). Interactions with ct^6A37 are indirect, being mediated by water W6, which is co ...

E. coli 70S ribosome = experiment: Cryo-EM of PamB2-stalled ribosome complexes; type: binding; conditions: 50 µM
Description: PamB2-ribosome complexes were generated by in vitro transcription–translation reactions in PURExpress in vitro protein synthesis system (New England Biolabs) with the same reaction mix as described earlier in the toeprinting assays. Complex formation reactions were carried out on MLIFstop toeprint DNA template in a 48 µl of reaction in presence of 50 µM PamB2. The reaction was incubated for 15 min at 37 °C. The reaction volume was then split: 42 µl were used for complex generation and 6 µl were used for toeprinting analysis. Ribosome complexes were isolated by centrifugation in 900 µl of sucrose gradient buffer (containing 40% sucrose, 50 mM HEPES-KOH, pH 7.4, 100 mM KOAc, 25 mM Mg(OAc)2 and 6 mM 2-mercaptoethanol) for 3 h at 4 °C with 80,000g in a Optima Max-XP Tabletop Ultracentrifuge with a TLA 120.2 rotor. The pelleted complex was resuspended in Hico buffer (50 mM HEPES-KOH, pH 7.4, 100 mM KOAc, 25 mM Mg(OAc)2) supplemented with 50 µM PamB2, then incubated for 15 min at 37 °C.
Sample volumes of 3.5 μl (eight at an optical density of 260 nm per milliliter) were applied to grids (Quantifoil, Cu, 300 mesh, R3/3 with 3-nm carbon) that had been freshly glow-discharged using a GloQube (Quorum Technologies) in negative charge mode at 25 mA for 90 s. Sample vitrification was performed using an ethane-propane mixture (37:63) in a Vitrobot Mark IV (Thermo Fisher Scientific), the chamber was set to 4 °C and 100% relative humidity and blotting was done for 3 s with no drain or wait time. Frozen cryo-EM grids were imaged on a TFS 300 kV Titan Krios at the Dubochet Center for Imaging EPFL (Lausanne, Switzerland). Images were collected on Falcon IV direct detection camera in counting mode using the EPU and AFIS data collection scheme with a magnification of ×96,000 and a total dose of 60 electrons per square angstrom (e^−/Å^2) for each exposure, and defocus ranging from −0.4 to −0.9 μm. In total, 7,638 videos were produced in EER format at a pixel size of 0.8 Å per pixel.
RELION v.4.0.1 (ref. [46]) was used for processing, unless otherwise specified. For motion correction, RELION’s implementation of MotionCor2 with 4×4 patches and for initial contrast transfer function (CTF) estimation CTFFIND v.4.1.14 (ref. [47]) was used. From 7,638 micrographs, 611,189 particles were picked using crYOLO v.1.8.04b47 with a general model. Then 562,816 ribosome-like particles were selected after two-dimensional classification and extracted at three times decimated pixel size (2.4 Å per pixel) (Supplementary Fig. 1b,c). An initial three-dimensional (3D) refinement was done using a E. coli 70S reference map (EMD-12573)[30]. […]

[1] = test system: Escherichia coli in vitro translation; conditions: E. coli in vitro translation, cited from earlier work
Source text: The accordance of structural features of paenilamicins with the translation inhibitor edeine (Extended Data Fig. 1c) led to the hypothesis that paenilamicins may also exert their antimicrobial activity by binding to the ribosome and inhibiting protein synthesis. […] The best understood context-specific translation inhibitors are those that target the large subunit, where their inhibitory action is influenced by the sequence of the nascent polypeptide chain being synthesized, for example, macrolides and ketolides[30]–[32] ...

Substance: paenilamicin B2 [PamB2]
- antifungal activity (fungi): antifungal activity
- binding to elongating ribosomes (density) (E. coli 70S ribosome; A- and P-site tRNAs (nonrotated) or A/P- and P/E-hybrid tRNAs (rotated), 2.2-2.3 Å): additional density located between the A- and P-site tRNAs that could be unambiguously assigned to PamB2; also recorded: binds stably to the small subunit of elongating ribosomes containing A- and P-site transfer RNAs (tRNAs)
- binding to initiating ribosomes (density) (E. coli 70S ribosome; P-site tRNA only, 2.4 Å): No density for PamB2 was evident; also recorded: not to initiating ribosomes bearing only a P-site tRNA
- peptide bond formation in PamB2-bound elongation complexes (E. coli 70S ribosome; additional density on CCA-end of A-site and A/P-tRNA): peptide bond formation has already occurred
- binding site on the ribosome (E. coli 70S ribosome; cryo-EM): located predominantly on the 30S subunit of the 70S ribosome, where it inserts into the cleft between the A- and P-site tRNAs
- inhibition of in vitro translation / protein synthesis (in words) [1]: potent inhibitor of protein synthesis
- IC50 ([1]; read-out: half-inhibitory concentration (IC50)): 400 nM
